According to patent US5210193A, “Piperazine derivatives” (American Cyanamid Company, priority 1990, dated 1993):
Converted amounts (≈) assume the structure as drawn. Like-named read-outs stand apart in the source and are kept apart here.

Tests used:
[1] = test system: Enterobacter aerogenes VGH 84-36; assay: in vitro antibacterial MIC, agar plate dilution; assay type: cell-based; conditions: Klebsiella aerogenes, VGH8436, 18 hours, 35° C., read-out: MIC
How it was run: (§1)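 Agar plate dilution on Mueller-Hinton agar, inoculum approximately 10^4 CFU per organism applied with a Steers replicator. MIC (mcg/ml) is the lowest compound concentration inhibiting visible growth after 18 hours at 35° C.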

[2] = test system: Enterobacter cloacae VGH 84-37; assay: in vitro antibacterial MIC, agar plate dilution; assay type: cell-based; conditions: Enterobacter cloacae, VGH8437, 18 h, 35° C., read-out: MIC
How it was run: as §1

[3] = test system: Escherichia coli ATCC 25922; assay: in vitro antibacterial MIC, agar plate dilution; assay type: cell-based; conditions: Escherichia coli, ATCC25922, 18 h, 35° C., read-out: MIC
How it was run: as §1

[4] = test system: Escherichia coli CMC 84-11; assay: in vitro antibacterial MIC, agar plate dilution; assay type: cell-based; conditions: Escherichia coli, CMC8411, 18 h, 35° C., read-out: MIC
How it was run: as §1

Klebsiella pneumoniae AD [5] = assay: in vitro antibacterial MIC, agar plate dilution; assay type: cell-based; conditions: Klebsiella pneumoniae, 18 h, 35° C., read-out: MIC
How it was run: as §1

[6] = test system: Klebsiella pneumoniae MOR 84-4; assay: in vitro antibacterial MIC, agar plate dilution; assay type: cell-based; conditions: Klebsiella pneumoniae, MOR844, 18 h, 35° C., read-out: MIC
How it was run: as §1

[7] = test system: Morganella morganii VGH 84-11; assay: in vitro antibacterial MIC, agar plate dilution; assay type: cell-based; conditions: VGH8411, 18 hours, 35° C., read-out: MIC
How it was run: as §1

[8] = test system: Proteus rettgeri CMC 84-41; assay: in vitro antibacterial MIC, agar plate dilution; assay type: cell-based; conditions: Providencia rettgeri, CMC8441, 18 h, 35° C., read-out: MIC
How it was run: as §1

[9] = test system: Pseudomonas aeruginosa VGH 84-4; assay: in vitro antibacterial MIC, agar plate dilution; assay type: cell-based; conditions: Pseudomonas aeruginosa, VGH844, 18 h, 35° C., read-out: MIC
How it was run: as §1

[10] = test system: Staphylococcus aureus ATCC 25913; assay: in vitro antibacterial MIC, agar plate dilution; assay type: cell-based; conditions: ATCC25913, 18 hours, 35° C.
How it was run: as §1

[11] = test system: Staphylococcus aureus Smith; assay: in vitro antibacterial MIC, agar plate dilution; assay type: cell-based; conditions: 35° C.
How it was run: as §1

Klebsiella pneumoniae AD [12] = assay: in vivo antibacterial activity, survival of infected mice (Table II); parameters: species or system Charles River CD-1 mice; conditions: subcutaneous
Method: (§2) Charles River CD-1 mice were infected with either Klebsiella pneumoniae AD or Staphylococcus aureus Smith. A single subcutaneous dose of the test compound was administered 1/2 hour after infection. […] The results appear in Tables II and III, wherein the representative test compounds are identified by the number of their hereinafter described examples.

[13] = test system: Staphylococcus aureus Smith; assay: in vivo antibacterial activity, survival of infected mice (Table III); parameters: species or system Charles River CD-1 mice; conditions: subcutaneous
Method: as §2

[14] = test system: Acinetobacter calcoaceticus MOR 84-43; assay: in vitro antibacterial MIC, agar plate dilution; assay type: cell-based; conditions: MOR8443, 18 hours, 35° C., read-out: MIC
How it was run: as §1

[15] = test system: Enterobacter cloacae K 84-10; assay: in vitro antibacterial MIC, agar plate dilution; assay type: cell-based; conditions: Enterobacter cloacae, K8410, 18 h, 35° C., read-out: MIC
How it was run: as §1

[16] = test system: Escherichia coli CMC 84-16; assay: in vitro antibacterial MIC, agar plate dilution; assay type: cell-based; conditions: Escherichia coli, CMC8416, 18 h, 35° C., read-out: MIC
How it was run: as §1

Escherichia coli NAR 311 = assay: in vitro antibacterial MIC, agar plate dilution; assay type: cell-based; conditions: NAR311, 18 hours, 35° C., read-out: MIC
How it was run: as §1

[17] = test system: Escherichia coli PRNT 311; assay: in vitro antibacterial MIC, agar plate dilution; assay type: cell-based; conditions: PRNT311, 18 hours, 35° C., read-out: MIC
How it was run: as §1

[18] = test system: Morganella morganii CMC 84-37; assay: in vitro antibacterial MIC, agar plate dilution; assay type: cell-based; conditions: Morganella morganii, CMC8437, 18 h, 35° C., read-out: MIC
How it was run: as §1

[19] = test system: Pseudomonas aeruginosa LL-1244; assay: in vitro antibacterial MIC, agar plate dilution; assay type: cell-based; conditions: Pseudomonas aeruginosa, LL1244, 18 h, 35° C., read-out: MIC
How it was run: as §1

[20] = test system: Serratia marcescens F 0-35; assay: in vitro antibacterial MIC, agar plate dilution; assay type: cell-based; conditions: Serratia marcescens, F035, 18 h, 35° C., read-out: MIC
How it was run: as §1

[21] = test system: Serratia marcescens K 84-18; assay: in vitro antibacterial MIC, agar plate dilution; assay type: cell-based; conditions: Serratia marcescens, K8418, 18 h, 35° C., read-out: MIC
How it was run: as §1

[22] = test system: Staphylococcus Spp saprophiticus VGH 84-50; assay: in vitro antibacterial MIC, agar plate dilution; assay type: cell-based; conditions: 18 hours, 35° C., read-out: MIC
How it was run: as §1

[23] = test system: Staphylococcus aureus ATTC 29213; assay: in vitro antibacterial MIC, agar plate dilution; assay type: cell-based; conditions: Staphylococcus aureus, ATTC29213, 18 h, 35° C., read-out: MIC
How it was run: as §1

[24] = test system: Staphylococcus aureus CMC 83-127; assay: in vitro antibacterial MIC, agar plate dilution; assay type: cell-based; conditions: Staphylococcus aureus, CMC83127, 18 h, 35° C., read-out: MIC
How it was run: as §1

[25] = test system: Staphylococcus aureus CMC 83-128; assay: in vitro antibacterial MIC, agar plate dilution; assay type: cell-based; conditions: CMC83128, 18 hours, 35° C., read-out: MIC
How it was run: as §1

[26] = test system: Staphylococcus aureus VGH 84-45; assay: in vitro antibacterial MIC, agar plate dilution; assay type: cell-based; conditions: Staphylococcus aureus, VGH8445, 18 h, 35° C., read-out: MIC
How it was run: as §1

[27] = test system: Staphylococcus aureus VGH 84-46; assay: in vitro antibacterial MIC, agar plate dilution; assay type: cell-based; conditions: 18 hours, 35° C.
How it was run: as §1

[28] = test system: Staphylococcus epidermidis CMC 83-135; assay: in vitro antibacterial MIC, agar plate dilution; assay type: cell-based; conditions: CMC83135, 18 hours, 35° C., read-out: MIC
How it was run: as §1

[29] = test system: Staphylococcus epidermidis IO 83-58; assay: in vitro antibacterial MIC, agar plate dilution; assay type: cell-based; conditions: IO8358, 18 hours, 35° C., read-out: MIC
How it was run: as §1

[30] = test system: Staphylococcus epidermidis VGH 84-40; assay: in vitro antibacterial MIC, agar plate dilution; assay type: cell-based; conditions: VGH8440, 18 hours, 35° C., read-out: MIC
How it was run: as §1

[31] = test system: Streptococcus faecalis ATTC 29212; assay: in vitro antibacterial MIC, agar plate dilution; assay type: cell-based; conditions: Enterococcus faecalis, ATTC29212, 18 hours, 35° C., read-out: MIC
How it was run: as §1

[32] = test system: Streptococcus faecalis VGH 84-65; assay: in vitro antibacterial MIC, agar plate dilution; assay type: cell-based; conditions: Enterococcus faecalis, VGH8465, 18 h, 35° C., read-out: MIC
How it was run: as §1

[33] = Staphylococcus aureus, 18 h, read-out: MIC

Work on `CCn1cc(C(=O)O)c(=O)c2cc(F)c(N3CCNC(c4cc5cc(Cl)ccc5o4)C3)cc21` (stereo not shown) [Example 18, 7-[3-(5-Chloro-2-benzofuranyl)-1-piperazinyl]-1-ethyl-6-fluoro-1,4-dihydro-4-oxo-3-quinolinecarboxylic acid] yielded an MIC [1] of 128 µg/mL (≈ 272 µM), an MIC [2] of 16 µg/mL (≈ 34 µM) and an MIC [3] of 16 µg/mL (≈ 34 µM). It also gave an MIC [4] of 16 µg/mL (≈ 34 µM), an MIC (Klebsiella pneumoniae AD [5]) of 16 µg/mL (≈ 34 µM) and an MIC [6] of 32 µg/mL (≈ 68.1 µM). It also gave an MIC [7] of 16 µg/mL (≈ 34 µM), an MIC [8] of 16 µg/mL (≈ 34 µM) and an MIC [9] greater than 256 µg/mL. The MIC [10] was 2 µg/mL (≈ 4.26 µM), the MIC [11, 33] was no more than 0.12 µg/mL and the “Survival Ratio 7 Days After Infection” value (Klebsiella pneumoniae AD [12]; 0.25 mg/kg single dose) was 0/5. For the same molecule, the “Survival Ratio 7 Days After Infection” value (Klebsiella pneumoniae AD [12]; 1 mg/kg single dose) was 0/5, the “Survival Ratio 7 Days After Infection” value (Klebsiella pneumoniae AD [12]; 4 mg/kg single dose) was 1/5 and the “Survival Ratio 7 Days After Infection” value (Klebsiella pneumoniae AD [12]; 16 mg/kg single dose) was 4/5. For the same molecule, the “Survival Ratio 7 Days After Infection” value (Klebsiella pneumoniae AD [12]; 64 mg/kg single dose) was 5/5, the “Survival Ratio 7 Days After Infection” value ([13]; 0.5 mg/kg single dose) was 0/5 and the “Survival Ratio 7 Days After Infection” value ([13]; 1 mg/kg single dose) was 0/5. For the same molecule, the “Survival Ratio 7 Days After Infection” value ([13]; 2 mg/kg single dose) was 0/5, the “Survival Ratio 7 Days After Infection” value ([13]; 4 mg/kg single dose) was 0/5 and the “Survival Ratio 7 Days After Infection” value ([13]; 8 mg/kg single dose) was 2/5.
`CCn1cc(C(=O)O)c(=O)c2cc(F)c(N3CCN(C)C(c4ccc(Br)s4)C3)cc21` (stereo not shown) [Example 14, 7-[3-(5-Bromo-2-thienyl)-4-methyl-1-piperazinyl]-1-ethyl-6-fluoro-1,4-dihydro-4-oxo-3-quinolinecarboxylic acid] was tested, and the MIC [1] was greater than 256 µg/mL, the MIC [2] was greater than 256 µg/mL and the MIC [3] was greater than 256 µg/mL. The MIC [4] was greater than 256 µg/mL, the MIC (Klebsiella pneumoniae AD [5]) was 256 µg/mL (≈ 518 µM) and the MIC [6] was greater than 256 µg/mL. It also gave an MIC [7] greater than 256 µg/mL, an MIC [8] of 128 µg/mL (≈ 259 µM) and an MIC [9] greater than 256 µg/mL. For the same molecule, the MIC [10] was 0.5 µg/mL (≈ 1.01 µM), the MIC [11, 33] was 0.25 µg/mL (≈ 0.506 µM) and the “Survival Ratio 7 Days After Infection” value ([13]; 0.5 mg/kg single dose) was 0/5. For the same molecule, the “Survival Ratio 7 Days After Infection” value ([13]; 1 mg/kg single dose) was 0/5, the “Survival Ratio 7 Days After Infection” value ([13]; 2 mg/kg single dose) was 0/5 and the “Survival Ratio 7 Days After Infection” value ([13]; 4 mg/kg single dose) was 5/5. For the same molecule, the “Survival Ratio 7 Days After Infection” value ([13]; 8 mg/kg single dose) was 5/5.
With `CCn1cc(C(=O)O)c(=O)c2cc(F)c(N3CCNC(CF)C3)c(F)c21` (single isomer, unassigned; (-)) [Example 64, (-)-N-Ethy6,8-difluoro-7-[3-(fluoromethyl)-1-piperazinyl]-1,4-dihydro-4-oxo-3-quinolinecarboxylic acid] the MIC [14] was 0.5 µg/mL (≈ 1.35 µM), the MIC [1] was 0.12 µg/mL (≈ 0.325 µM) and the MIC [15] was 0.06 µg/mL (≈ 0.162 µM). For the same molecule, the MIC [2] was 0.06 µg/mL (≈ 0.162 µM), the MIC [3] was 0.03 µg/mL (≈ 0.0812 µM) and the MIC [4] was 0.03 µg/mL (≈ 0.0812 µM). The MIC [16] was 0.03 µg/mL (≈ 0.0812 µM), the MIC (Escherichia coli NAR 311) was 1 µg/mL (≈ 2.71 µM) and the MIC [17] was 0.06 µg/mL (≈ 0.162 µM). The MIC (Klebsiella pneumoniae AD [5]) was 0.06 µg/mL (≈ 0.162 µM), the MIC [6] was 0.06 µg/mL (≈ 0.162 µM) and the MIC [18] was 0.06 µg/mL (≈ 0.162 µM). It also gave an MIC [7] of 0.12 µg/mL (≈ 0.325 µM), an MIC [8] of 0.25 µg/mL (≈ 0.677 µM) and an MIC [19] of 8 µg/mL (≈ 21.7 µM). The MIC [9] was 2 µg/mL (≈ 5.42 µM), the MIC [20] was 0.5 µg/mL (≈ 1.35 µM) and the MIC [21] was 0.25 µg/mL (≈ 0.677 µM). It also gave an MIC [22] of 1 µg/mL (≈ 2.71 µM), an MIC [23] of 0.25 µg/mL (≈ 0.677 µM) and an MIC [24] of 0.06 µg/mL (≈ 0.162 µM). For the same molecule, the MIC [25] was 0.25 µg/mL (≈ 0.677 µM), the MIC ([11]; 18 hours) was 0.12 µg/mL (≈ 0.325 µM) and the MIC [26] was 0.12 µg/mL (≈ 0.325 µM). It also gave an MIC [27] of 0.12 µg/mL (≈ 0.325 µM), an MIC [28] of 0.25 µg/mL (≈ 0.677 µM) and an MIC [29] of 0.25 µg/mL (≈ 0.677 µM). It also gave an MIC [30] of 0.25 µg/mL (≈ 0.677 µM), an MIC [31] of 4 µg/mL (≈ 10.8 µM) and an MIC [32] of 4 µg/mL (≈ 10.8 µM).
